Laboratory results: patent US5140009A (Tap Pharmaceuticals, Inc., priority 1990, dated 1992)
Numbered stars: 1 amine (or outer) side, 2 acyl side, 3 side chain; on linkers, the order of the positions; unused ones are H or OH. Square brackets hold non-standard residues; d marks the D form. Peptide text beside a SMILES is read from it. * marks the point of attachment. Propanoyl(3-indol-3-yl) = O=C(CCc1c[nH]c2ccccc12)*; Desaminohistidyl = O=C(CCc1c[nH]cn1)*; d2Nal = N[C@H](Cc1ccc2ccccc2c1)C(=O)O; dLys(iPr) = CC(C)NCCCC[C@@H](N)C(=O)O; Hydrocinnamoyl = O=C(CCc1ccccc1)*; X11 = CN(C)c1ccc(C=CC(=O)*)cc1; NMeL = CN[C@@H](CC(C)C)C(=O)O; dNMeL = CN[C@H](CC(C)C)C(=O)O; Nicotinoyl = O=C(c1cccnc1)*; Picolinoyl = O=C(c1ccccn1)*; dOrn = NCCC[C@@H](N)C(=O)O; Morpholide = C1CN(*)CCO1; PhAc = O=C(Cc1ccccc1)*; X2 = O=C(C=Cc1ccccc1)*; CO = O=C([*:1])[*:2]

target: T1, LHRH receptors (Rattus norvegicus, UniProt P30969); experiment: Receptor Binding (radioligand receptor binding assay); conditions: table 3; rat pituitary membranes, radioiodinated [D-Leu^6 -des Gly^10 ]-LHRH ethyl amide 50 pM, 2 hours at 4° C.; read-out: Receptor Binding pkI (converted)
T1 construct: Pituitary membranes containing LHRH receptors are prepared in batches from quick-frozen rat pituitaries; tissue Hilltop Labs; host or cells: rat pituitary membranes
T1 sequence (P30969 1-327): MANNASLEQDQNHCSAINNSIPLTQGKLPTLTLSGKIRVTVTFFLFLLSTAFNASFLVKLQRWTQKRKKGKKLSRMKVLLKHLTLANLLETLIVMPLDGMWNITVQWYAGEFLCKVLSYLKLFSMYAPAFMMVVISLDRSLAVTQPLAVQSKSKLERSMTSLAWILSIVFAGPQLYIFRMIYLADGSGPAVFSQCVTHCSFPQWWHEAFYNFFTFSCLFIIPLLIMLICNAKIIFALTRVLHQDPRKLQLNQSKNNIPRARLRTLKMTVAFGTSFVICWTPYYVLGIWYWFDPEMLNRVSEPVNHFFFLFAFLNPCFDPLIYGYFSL

SMILES | Ki
CCNC(=O)[C@@H]1CCCN1C(=O)[C@H](CCCNC(=N)N)NC(=O)[C@H](CC(C)C)NC(=O)[C@@H](CCC(N)=O)NC(=O)[C@H](Cc1ccc(O)cc1)NC(=O)[C@H](CO)NC(=O)CCc1c[nH]c2ccccc12 [Compound 50, (4-9)[N-(3-(3-Indole)propionyl)-Ser^4 -D-Gln^6 -Pro^9 -NHEt]LHRH] ({Propanoyl(3-indol-3-yl)}-SY[dQ]LRP-NHEt) | 166 nM
CCNC(=O)[C@@H]1CCCN1C(=O)[C@H](CCCNC(=N)N)NC(=O)[C@H](CC(C)C)NC(=O)[C@@H](CCCCNC(=O)c1cccnc1)NC(=O)[C@H](Cc1ccc(O)cc1)NC(=O)[C@H](CO)NC(=O)CCc1c[nH]c2ccccc12 [Compound 52] ({Propanoyl(3-indol-3-yl)}-SY[dK](Nicotinoyl)LRP-NHEt) | 21.9 nM
CCNC(=O)[C@@H]1CCCN1C(=O)[C@H](CCCNC(=N)N)NC(=O)[C@H](CC(C)C)NC(=O)[C@@H](CCCCNC(=O)c1ccccn1)NC(=O)[C@H](Cc1ccc(O)cc1)NC(=O)[C@H](CO)NC(=O)CCc1c[nH]c2ccccc12 [Compound 53] ({Propanoyl(3-indol-3-yl)}-SY[dK](Picolinoyl)LRP-NHEt) | 27.5 nM
CCNC(=O)[C@@H]1CCCN1C(=O)[C@H](CCCNC(=N)N)NC(=O)[C@H](CC(C)C)NC(=O)[C@@H](CCCCNC(C)C)NC(=O)[C@H](Cc1ccc(O)cc1)NC(=O)[C@H](CO)NC(=O)CCc1c[nH]c2ccccc12 [Compound 54, N-(3-(3-Indole)propionyl)-Ser-Tyr-D-Lys-(N-epsilon-isp)-Leu-Arg-Pro-NHEt] ({Propanoyl(3-indol-3-yl)}-SY[dLys(iPr)]LRP-NHEt) | 20.4 nM
CCNC(=O)[C@@H]1CCCN1C(=O)[C@H](CCCNC(=N)N)NC(=O)[C@H](CC(C)C)NC(=O)[C@@H](CCCCN)NC(=O)[C@H](Cc1ccc(O)cc1)NC(=O)[C@H](CO)NC(=O)CCc1c[nH]c2ccccc12 [Compound 55, N-(3-(3-Indole)propionyl)-Ser-Tyr-D-Lys-Leu-Arg-Pro-NHEt] ({Propanoyl(3-indol-3-yl)}-SY[dK]LRP-NHEt) | 15.1 nM
CCNC(=O)[C@@H]1CCCN1C(=O)[C@H](CCCNC(=N)N)NC(=O)[C@H](CC(C)C)NC(=O)[C@@H](Cc1c[nH]c2ccccc12)NC(=O)[C@H](Cc1ccc(O)cc1)NC(=O)[C@H](CO)NC(=O)[C@H](Cc1c[nH]c2ccccc12)NC(=O)CCc1c[nH]cn1 [Compound 61, N-[3-(4-Imidazolyl)propionyl]-Trp-Ser-Tyr-D-Trp-Leu-Arg-ProNHEt] (Desaminohistidyl-WSY[dW]LRP-NHEt) | 0.427 nM
CCNC(=O)[C@@H]1CCCN1C(=O)[C@H](CCCNC(=N)N)NC(=O)[C@H](CC(C)C)NC(=O)[C@@H](Cc1c[nH]c2ccccc12)NC(=O)[C@H](Cc1ccc(O)cc1)NC(=O)[C@H](CO)NC(=O)[C@H](Cc1c[nH]c2ccccc12)NC(=O)C=Cc1ccccc1 [Compound 62, (3-9)[N-Cinnamoyl-Trp^3 -D-Trp^6 -Pro^9 -NHEt]LHRH] (X2-WSY[dW]LRP-NHEt) | 10.5 nM
CCNC(=O)[C@@H]1CCCN1C(=O)[C@H](CCCNC(=N)N)NC(=O)[C@H](CC(C)C)NC(=O)[C@@H](CC(C)C)NC(=O)[C@H](Cc1ccc(O)cc1)NC(=O)[C@H](CO)NC(=O)[C@H](Cc1c[nH]c2ccccc12)NC(=O)C=Cc1ccccc1 [Compound 63, (3-9)[N-Cinnamoyl-Trp^3 -D-Leu^6 -Pro^9 -NHEt]LHRH] (X2-WSY[dL]LRP-NHEt) | 50.1 nM
CCNC(=O)[C@@H]1CCCN1C(=O)[C@H](CCCNC(=N)N)NC(=O)[C@H](CC(C)C)NC(=O)[C@@H](CC(C)C)NC(=O)[C@H](Cc1ccc(O)cc1)NC(=O)[C@H](CO)NC(=O)[C@H](Cc1c[nH]c2ccccc12)NC(=O)C=Cc1ccc(N(C)C)cc1 [Compound 64, (3-9)[N-((para-Dimethylamino)cinnamoyl)-Trp^3 -D-Leu^6 -Pro^9 -NHEt]LHRH] (X11-WSY[dL]LRP-NHEt) | 437 nM
CCNC(=O)[C@@H]1CCCN1C(=O)[C@H](CCCNC(=N)N)NC(=O)[C@H](CC(C)C)NC(=O)[C@@H](Cc1c[nH]c2ccccc12)NC(=O)[C@H](Cc1ccc(O)cc1)NC(=O)[C@H](CO)NC(=O)[C@H](Cc1c[nH]c2ccccc12)NC(=O)CCc1ccccc1 [Compound 65, (3-9)[N-(3-Phenylpropionyl)-Trp^3 -D-Trp^6 -Pro^9 -NHEt]LHRH] (Hydrocinnamoyl-WSY[dW]LRP-NHEt) | 0.269 nM
CCNC(=O)[C@@H]1CCCN1C(=O)[C@H](CCCNC(=N)N)NC(=O)[C@H](CC(C)C)NC(=O)[C@@H](CC(C)C)NC(=O)[C@H](Cc1ccc(O)cc1)NC(=O)[C@H](CO)NC(=O)[C@H](Cc1c[nH]c2ccccc12)NC(=O)Cc1ccccc1 [Compound 68, (3-9)[N-(Phenylacetyl)-Trp^3 -D-Leu^6 -Pro^9 -NHEt]LHRH] (PhAc-WSY[dL]LRP-NHEt) | 21.9 nM
CCNC(=O)[C@@H]1CCCN1C(=O)[C@H](CCCNC(=N)N)NC(=O)[C@H](CC(C)C)NC(=O)[C@@H](Cc1c[nH]c2ccccc12)NC(=O)[C@H](Cc1ccc(O)cc1)NC(=O)[C@H](CO)NC(=O)[C@H](Cc1c[nH]c2ccccc12)NC(=O)[C@H](Cc1c[nH]cn1)NC(=O)CCc1cnc[nH]1 [Compound 69, N-(3-(5-Imidazolyl)propionyl)-His-Trp-Ser-Tyr-D-Trp-Leu-Arg-Pro-NHEt] (Desaminohistidyl-HWSY[dW]LRP-NHEt) | 1.05 nM

Next, values leading:

Ki | SMILES
11 nM | CCNC(=O)[C@@H]1CCCN1C(=O)[C@H](CCCNC(=N)N)NC(=O)[C@H](CC(C)C)N(C)C(=O)[C@@H](Cc1c[nH]c2ccccc12)NC(=O)[C@H](Cc1ccc(O)cc1)NC(=O)[C@H](CO)NC(=O)CCc1c[nH]c2ccccc12 [Compound 46, N-(3-(3-Indole)propionyl)Ser-Tyr-D-Trp-N-Me-Leu-Arg-Pro-NHEt] ({Propanoyl(3-indol-3-yl)}-SY[dW][NMeL]RP-NHEt)
4.27 nM | CC(C)C[C@H](NC(=O)[C@@H](Cc1ccc2ccccc2c1)NC(=O)[C@H](Cc1ccc(O)cc1)NC(=O)[C@H](CO)NC(=O)CCc1c[nH]c2ccccc12)C(=O)N[C@@H](CCCNC(=N)N)C(=O)N1CCC[C@H]1C(=O)NCC(N)=O [Compound 47, N-(3-(3-Indole)propionyl)-Ser-Tyr-D-2-Nal-Leu-Arg-Pro-Gly-NH2] ({Propanoyl(3-indol-3-yl)}-SY[d2Nal]LRPG-NH2)
55 nM | CCNC(=O)[C@@H]1CCCN1C(=O)[C@H](CCCNC(=N)N)NC(=O)[C@H](CC(C)C)NC(=O)[C@@H](CCCN)NC(=O)[C@H](Cc1ccc(O)cc1)NC(=O)[C@H](CO)NC(=O)CCc1c[nH]c2ccccc12 [Compound 49, (4-9) [N-(3-(3-indole)propionyl)-Ser^4 -D-Orn^6 -Pro^9 NHEt]LHRH] ({Propanoyl(3-indol-3-yl)}-SY[dOrn]LRP-NHEt)
132 nM | CCNC(=O)CC[C@@H](NC(=O)[C@H](Cc1ccc(O)cc1)NC(=O)[C@H](CO)NC(=O)CCc1c[nH]c2ccccc12)C(=O)N[C@@H](CC(C)C)C(=O)N[C@@H](CCCNC(=N)N)C(=O)N1CCC[C@H]1C(=O)NCC [Compound 51, N-(3-(3-Indole)propionyl)-Ser-Tyr-N-delta-ethyl-D-Gln-Leu-Arg-ProNHEt] ({Propanoyl(3-indol-3-yl)}-SY[dE](NHEt)LRP-NHEt)
0.646 nM | CC(C)C[C@H](NC(=O)[C@@H](Cc1ccc2ccccc2c1)NC(=O)[C@H](Cc1ccc(O)cc1)NC(=O)[C@H](CO)NC(=O)CCc1c[nH]c2ccccc12)C(=O)N[C@@H](CCCNC(=N)N)C(=O)N1CCC[C@H]1C(=O)N[C@H](C)C(N)=O [Compound 56, N-(3-(3-Indole)propionyl)-Ser-Tyr-D-2-Nal-Leu-Arg-Pro-D-AlaNH2] ({Propanoyl(3-indol-3-yl)}-SY[d2Nal]LRP[dA]-NH2)
22.4 nM | CCNC(=O)[C@@H]1CCCN1C(=O)[C@H](CCCNC(=N)N)NC(=O)[C@H](CC(C)C)NC(=O)[C@@H](CC(C)C)N(C)C(=O)[C@H](Cc1ccc(O)cc1)NC(=O)[C@H](CO)NC(=O)CCc1c[nH]c2ccccc12 [Compound 58, N-(3-(3-Indole)propionyl)-Ser-Tyr-D-N-Me-Leu-Leu-Arg-Pro-NHEt] ({Propanoyl(3-indol-3-yl)}-SY[dNMeL]LRP-NHEt)
0.00832 nM | CCNC(=O)[C@@H]1CCCN1C(=O)[C@H](CCCNC(=N)N)NC(=O)[C@H](CC(C)C)NC(=O)[C@@H](Cc1c[nH]c2ccccc12)NC(=O)[C@H](Cc1ccc(O)cc1)NC(=O)[C@H](CO)NC(=O)[C@H](Cc1c[nH]c2ccccc12)NC(=O)[C@H](Cc1ccccc1)NC(=O)N1CCOCC1 [Compound 59, N-alpha-Morpholinocarbonyl-Phe-Trp-Ser-Tyr-D-Trp-Leu-Arg-ProNHET] ({Morpholide-CO}-FWSY[dW]LRP-NHEt)
5.25 nM | CCNC(=O)[C@@H]1CCCN1C(=O)[C@H](CCCNC(=N)N)NC(=O)[C@H](CC(C)C)NC(=O)[C@@H](CCCNC(=N)N)NC(=O)[C@H](Cc1ccc(O)cc1)NC(=O)[C@H](CO)NC(=O)[C@H](Cc1c[nH]c2ccccc12)NC(=O)[C@H](Cc1ccccc1)NC(=O)N1CCOCC1 [Compound 60, N-(alpha)-Morpholinocarbonyl-Phe-Trp-Ser-Tyr-D-Arg-Leu-Arg-ProNHEt] ({Morpholide-CO}-FWSY[dR]LRP-NHEt)
1.78 nM | CCNC(=O)[C@@H]1CCCN1C(=O)[C@H](CCCNC(=N)N)NC(=O)[C@H](CC(C)C)NC(=O)[C@@H](CC(C)C)NC(=O)[C@H](Cc1ccc(O)cc1)NC(=O)[C@H](CO)NC(=O)[C@H](Cc1c[nH]c2ccccc12)NC(=O)CCc1ccccc1 [Compound 66, (3-9)[N-(3-Phenylpropionyl)-Trp^3 -D-Leu^6 -Pro^9 -NHEt]LHRH] (Hydrocinnamoyl-WSY[dL]LRP-NHEt)
